We go through 3 molecules from patent publication US4859669A, “Antiinflammatory and anti-hyperproliferative naphthyridin-4-ones” (Schering Corporation, priority 1987, dated 1989).

For assay [1], the system named is pleural cavity of rats. The assay is described as follows: Reverse passive Arthus reaction in the pleural cavity of rats (Myers et al.). The class given is in vivo. Conditions: po; rat. The text has this: Another procedure for testing for acute antiinflammatory activity measures the reverse passive Arthus reaction in the pleural cavity of rats as described in Myers et al., Inflammation, Vol. 9, No. 1, 1985, pp. 91-98.

The test system of assay [2] is Male Lewis inbred albino rats. The assay is described as follows: Reversed passive Arthus reaction (RPAR), rat paw volume. The class given is in vivo. The conditions noted are these: po, 1 h, dosed one hour prior to sensitization with BSA. As for the experimental part:
REVERSED PASSIVE ARTHUS REACTION (RPAR) ANIMALS, MATERIALS AND METHODS
Male Lewis inbred albino rats weighting 180-220 grams obtained from Charles River Breeding Laboratories are used in these experiments. The rats are housed 3 animals/cage and food and water are allowed ad libitum. The animals are numbered 1-3 in each cage and color marked for identification purposes.
All reagents and drugs are prepared just prior to the study. Crystallized and lyophilized bovine serum albumin (BSA), obtained from Sigma Chemical Company, is solubilized without shaking in cold sterile pyrogen free saline (10 mg/ml). Lyophilized anti-bovine serum albumin (IgG Fraction), obtained from Cappel Laboratories, is suspended in sterile distilled water and diluted with cold pyrogen free saline (PFS) just prior to use. The final concentration of anti-bovine serum albumin is 0.5 mg/ml of PFS. Both BSA and anti-BSA solutions are iced during use. Drugs are suspended or solubilized in an aqueous solution of methyl cellulose (MC) with a homogenizer just prior to administration.
Groups of animals (6/group) are dosed with drug in MC by gavage one hour prior to sensitization with BSA. […] The volume of mercury displaced is converted to weight and recorded. […] Paw volumes are also recorded with a plethysmograph during the development of the inflammation at 2 and 4 hours post-challenge.

Assay [3] concerns the target T1, 5-lipoxygenase (Rattus norvegicus, UniProt P12527).
T1 construct: endogenous in cells; host or cells: neutrophils isolated from the pleural exudate of male Wistar-Lewis rats (given "Witar-Lewis" in the source) after BSA / anti-BSA challenge
T1 sequence (P12527 1-673): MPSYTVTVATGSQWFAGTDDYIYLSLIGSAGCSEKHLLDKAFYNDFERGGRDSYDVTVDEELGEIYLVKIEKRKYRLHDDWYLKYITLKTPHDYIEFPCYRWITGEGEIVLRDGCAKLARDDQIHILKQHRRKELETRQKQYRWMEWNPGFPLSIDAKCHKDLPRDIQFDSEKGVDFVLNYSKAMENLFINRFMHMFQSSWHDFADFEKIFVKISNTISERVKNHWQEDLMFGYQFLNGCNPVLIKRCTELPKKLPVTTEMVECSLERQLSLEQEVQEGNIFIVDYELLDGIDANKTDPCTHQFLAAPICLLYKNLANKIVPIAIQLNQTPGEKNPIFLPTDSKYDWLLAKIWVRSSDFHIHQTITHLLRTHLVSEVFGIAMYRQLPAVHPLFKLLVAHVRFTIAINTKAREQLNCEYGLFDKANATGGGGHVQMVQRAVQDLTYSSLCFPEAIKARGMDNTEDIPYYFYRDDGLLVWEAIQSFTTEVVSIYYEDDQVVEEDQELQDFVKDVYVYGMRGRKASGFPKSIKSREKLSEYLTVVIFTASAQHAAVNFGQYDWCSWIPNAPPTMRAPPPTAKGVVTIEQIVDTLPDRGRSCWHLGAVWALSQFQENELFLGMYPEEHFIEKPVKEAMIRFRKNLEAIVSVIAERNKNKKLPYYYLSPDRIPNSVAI
As to the kind of experiment: Lipoxygenase assay: arachidonic acid metabolism in rat neutrophils. Type of assay: cell-based. The conditions noted are these: compound 5×10^-5 Molar. The procedure:
The effect of the compounds of the invention on 5-lipoxygenase activity is determined using rat neutrophils. Male Witar-Lewis rats are injected intravenously with 5 mg BSA in 0.2 ml pyrogen free saline followed by an intrapleural injection of 500 ug of the IgG fraction of rabbit anti-BSA (Cappel Labs., Lot 17782) in 0.2 ml pyrogen free saline. Injections are made under light ether anesthesia. Four hours later, the pleural cavity exudate consisting of 85 to 95% neutrophils is removed. Neutrophils are isolated from the pleural exudates by centrifugation of 4° C. for 10 min at 200× g. The cell pellet is resuspended in 17 mM Tris is HCl buffer, pH 7.2, containing 0.75% NH4 Cl to lyse contaminating erythrocytes followed by centrifugation at 4° C. for 5 min at 200× g. The pelleted neutrophils are rewashed in 50 mM Tris HCl, pH 7.4, containing 100 mM NaCl, followed by the same centrifugation. The cell pellet is resuspended in 50 mM Tris HCl, pH 7.4, containing 100 mM NaCl and 1 mM CaCl2, at 3-12×10^7 intact neutrophils per ml.
Solutions of compounds in methanol are dried, then resuspended in the cell suspension for 4 min. Arachidonic acid methabolism is determined by incubating 0.1 ml of this suspension with 40 μM [1-^14 C] arachidonic acid (AA) (Amersham, 59 Ci/mole), in the presence of 0.1% BRIJ 56 and 10 μM A23187. Arachidonic acid metabolism as well as the various drug and reagent abbreviations are described in detail in Arch. Dermatol, Vol. 119, pages 541 to 547 (July 1983), the teachings of which are incorporated herein by reference. Assays run in triplicate are initiated by adding cells with inhibitor to a film of the BRIJ 56, arachidonic acid and A23187 37° C. After one minute, reactions are terminated by the addition of 2.4 ml of a chloroform:methanol (1:1 v/v) mixture and 0.9 ml of 0.1% formic acid. […] Products, leukotriene B4 (LTB4), 12-hydroxy heptadecatrienoic acid (HHT) and 5-hydroxy icosatetraenoic acid (5-HETE), are located by autoradiography and appropriate regions of the thin layer plates are scraped and counted in a liquid scintillation counter. […]

Where two headings read alike, the source gives them in different places. Where only a bound is given, the exact number is not on record here.

As a reminder, the ED50 is the dose that gives a 50% effect, or the effect in half of the subjects. `CCOC(=O)N1CCc2c1c1cccnc1n(-c1ccccc1)c2=O` [2,3,4,5-tetrahydro-4-oxo-5-phenyl-1H-pyrrolo[3,2-c][1,8]napthyridine-1-carboxylic acid, ethyl ester] gave an ED50 in assay [1] of approximately 25 mg/kg.

Turning to `O=c1c2c(c3cccnc3n1-c1ccccc1)NCC2` [1,2,3,5-tetrahydro-5-phenyl-4H-pyrrolo[3,2-c][1,8]naphthyridin-4-one], the values for the ED50 in assay [2] and in assay [1] were approximately 25 mg/kg and less than 25 mg/kg, respectively.

As a reminder, the inhibition is the share of the control response that was lost under treatment. Consider `O=c1c2c(c3cccnc3n1-c1ccccc1)N(c1ccccc1)CC2` [1,2,3,5-tetrahydro-1,5-diphenyl-4H-pyrrolo[3,2-c][1,8]napthyridin-4-one], for which the inhibition at 50 µM in assay [3] (read-out: inhibition of HETE production) is 60%; in assay [3] (read-out: inhibition of HHT production), approximately 40%; in assay [3] (read-out: inhibition of LTB4 production) it was 60%.
